From patent publication US7238813B2, “Chemical compounds” (Smithkline Beecham Corporation, priority 2000, dated 2007)
Counter-ions that a name gives are not always drawn.

How the values were obtained:
Recombinant GST-Tie2 = Recombinant GST-Tie2 (Homo sapiens, UniProt Q02763); assay: Tie2 fluorescence polarization kinase activity assay (TIE2-FP); type: biochemical; conditions: starred examples, 200 μM ATP, read-out: TIE2-E (Tie-2 activities run utilizing Tie2-FP assay)
Method: Tie2 Fluorescence Polarization Kinase Activity Assay: (TIE2-FP)
Activation of Recombinant Tie2 Activation:
Recombinant GST-Tie2 was activated by incubating the enzyme in 20 mM Tris-HCl, pH 7.5, 12 mM MgCl2, 100 mM NaCl, 20 μM sodium vanidate, 1 mM DTT and 300 μM ATP at room temperature for 2 hours. The activation mixture was then passed through a NAP-25 desalting column (Pharmacia Biotech cat. no. 17-0852-02) to remove the free ATP. The activated enzyme was stored as aliquots at −80° C. in 20 mM Tris-HCl, pH 7.5 and 100 mM NaCl.
The final assay conditions were 50 mM HEPES, pH 7.5, 5% DMSO (when screening compounds), 200 μM ATP, 5 mM MgCl2, 1 mM DTT, 50 μM sodium vanidate, 1 nM activated enzyme, and 200 μM peptide. IC50's of compounds were measured under subsaturating ATP (200 μM) and varing concentrations of activated Tie2 and peptide substrate ([…]-OH; MW 1873 Da, TFA salt). Panvera Antiphosphotyrosine antibody (Cat#P2840) and PTK Green Tracer (Cat#P2842) were used to detect the phosphorylated peptide. Polarization was measured on a TECAN Polarion in 138-second cycles for 30 minutes at room temperature. IC50's were then determined from the % polarization using normal calculation methods.

GST-VEGFR2 = target: T1, GST-VEGFR2 (Homo sapiens, UniProt P35968); assay: VEGF-R2 enzyme assay (VEGF-E), LANCE method; type: biochemical; conditions: 75 μM ATP
T1 construct: GST-VEGFR2, baculovirus expressed recombinant constructs of the intracellular domains of human TIE2 tagged by GST; made in house
T1 sequence (P35968 786-1356 limits assumed): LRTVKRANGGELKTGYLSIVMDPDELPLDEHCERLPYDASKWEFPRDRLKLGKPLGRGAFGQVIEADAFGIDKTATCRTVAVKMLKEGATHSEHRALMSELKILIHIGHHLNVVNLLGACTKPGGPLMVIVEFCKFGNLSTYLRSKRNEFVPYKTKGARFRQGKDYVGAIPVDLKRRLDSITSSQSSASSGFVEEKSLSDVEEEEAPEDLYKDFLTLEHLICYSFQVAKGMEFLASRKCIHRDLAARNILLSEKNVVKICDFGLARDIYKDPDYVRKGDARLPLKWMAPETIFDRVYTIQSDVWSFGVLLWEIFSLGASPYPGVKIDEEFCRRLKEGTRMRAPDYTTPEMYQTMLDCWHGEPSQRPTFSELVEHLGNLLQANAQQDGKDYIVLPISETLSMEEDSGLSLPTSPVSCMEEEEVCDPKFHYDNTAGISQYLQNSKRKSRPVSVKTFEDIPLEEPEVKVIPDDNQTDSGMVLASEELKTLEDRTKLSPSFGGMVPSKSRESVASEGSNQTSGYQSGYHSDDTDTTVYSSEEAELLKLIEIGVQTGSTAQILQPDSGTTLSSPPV

[1] = target: T2, GST-TIE2 (intracellular domains of human TIE2) (Homo sapiens, UniProt Q02763); assay: TIE-2 enzyme assay (TIE2-E), LANCE method; type: biochemical; conditions: 80 uM ATP
T2 construct: made in house
T2 sequence (Q02763 762-1104): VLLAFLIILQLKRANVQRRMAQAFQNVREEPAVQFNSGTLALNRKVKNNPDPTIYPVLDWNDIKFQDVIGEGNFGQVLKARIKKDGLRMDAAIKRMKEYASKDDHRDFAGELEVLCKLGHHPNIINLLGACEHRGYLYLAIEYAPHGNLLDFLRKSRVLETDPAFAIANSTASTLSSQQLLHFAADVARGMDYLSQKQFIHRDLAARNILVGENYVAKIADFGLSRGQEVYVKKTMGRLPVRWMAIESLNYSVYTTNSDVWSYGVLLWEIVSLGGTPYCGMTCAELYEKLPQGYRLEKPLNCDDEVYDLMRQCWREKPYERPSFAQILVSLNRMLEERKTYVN
Outline: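 Baculovirus GST-TIE2 (human intracellular domain, aa 762–1104) preactivated 30 min at RT with 2 mM ATP, then reacted 30 min at RT with 1 μM D1-15 peptide, 80 uM ATP, 10 mM MgCl2, pH 7.4, 2.4% DMSO. EDTA-stopped; LANCE Eu-anti-pTyr/streptavidin-APC read-out. IC50 by nonlinear regression, reported as pIC50.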

[2] = target: T3, TIE2 intracellular domain/c-fms extracellular domain (TIE2/c-fms) chimeric protein expressing mouse 3T3 cells (Homo sapiens, UniProt Q02763); assay: TIE-2 autophosphorylation assay (TIE2-C), ELISA; type: cell-based; conditions: TIE2/c-fms 3T3 cells, MCSF activation
T3 construct: a TIE2 intracellular domain/c-fms extracellular domain (TIE2/c-fms) chimeric protein; expressed in transfected cells; host or cells: mouse 3T3 cells
T3 sequence (Q02763 770-1124 limits assumed, change not shown): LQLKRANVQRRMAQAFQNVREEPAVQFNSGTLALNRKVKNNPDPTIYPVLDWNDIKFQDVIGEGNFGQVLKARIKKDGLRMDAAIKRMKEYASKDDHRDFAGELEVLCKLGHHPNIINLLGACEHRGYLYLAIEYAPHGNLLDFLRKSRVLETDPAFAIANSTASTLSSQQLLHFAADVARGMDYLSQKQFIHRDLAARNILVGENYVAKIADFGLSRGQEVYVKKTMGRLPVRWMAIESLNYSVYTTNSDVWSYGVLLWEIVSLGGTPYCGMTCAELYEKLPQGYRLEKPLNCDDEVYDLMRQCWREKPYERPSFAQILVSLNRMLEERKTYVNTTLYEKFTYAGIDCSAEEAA
Outline: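 Mouse 3T3 cells expressing TIE2 intracellular/c-fms extracellular chimera treated with compound for 1 hr in serum-free DMEM (0.1% DMSO), then stimulated with MCSF. Lysates captured on anti-c-fms plates overnight at 4 °C; phosphotyrosine detected by biotin-PT66/HRP-streptavidin, OD450. IC50 by nonlinear regression, reported as pIC50.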

[3] = test system: Human umbilical cord endothelial cells (HUVEC); assay: VEGF-driven cellular proliferation assay: BrdU incorporation assay (VEGF-C); type: cell-based; conditions: Homo sapiens
Outline: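 HUVEC (≤6 passages) were plated at 5000 cells/well and exposed to compound 30 min in serum-free M199 containing 0.6% DMSO. Medium with 20 ng/ml VEGF was then added for 24 h, followed by a 24 h pulse with 10 μM BrdU and ELISA read at 450 nm. IC50 from nonlinear regression of percent inhibition was expressed as pIC50.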

Recombinant GST-Tie2, sequence (Q02763 23-1124): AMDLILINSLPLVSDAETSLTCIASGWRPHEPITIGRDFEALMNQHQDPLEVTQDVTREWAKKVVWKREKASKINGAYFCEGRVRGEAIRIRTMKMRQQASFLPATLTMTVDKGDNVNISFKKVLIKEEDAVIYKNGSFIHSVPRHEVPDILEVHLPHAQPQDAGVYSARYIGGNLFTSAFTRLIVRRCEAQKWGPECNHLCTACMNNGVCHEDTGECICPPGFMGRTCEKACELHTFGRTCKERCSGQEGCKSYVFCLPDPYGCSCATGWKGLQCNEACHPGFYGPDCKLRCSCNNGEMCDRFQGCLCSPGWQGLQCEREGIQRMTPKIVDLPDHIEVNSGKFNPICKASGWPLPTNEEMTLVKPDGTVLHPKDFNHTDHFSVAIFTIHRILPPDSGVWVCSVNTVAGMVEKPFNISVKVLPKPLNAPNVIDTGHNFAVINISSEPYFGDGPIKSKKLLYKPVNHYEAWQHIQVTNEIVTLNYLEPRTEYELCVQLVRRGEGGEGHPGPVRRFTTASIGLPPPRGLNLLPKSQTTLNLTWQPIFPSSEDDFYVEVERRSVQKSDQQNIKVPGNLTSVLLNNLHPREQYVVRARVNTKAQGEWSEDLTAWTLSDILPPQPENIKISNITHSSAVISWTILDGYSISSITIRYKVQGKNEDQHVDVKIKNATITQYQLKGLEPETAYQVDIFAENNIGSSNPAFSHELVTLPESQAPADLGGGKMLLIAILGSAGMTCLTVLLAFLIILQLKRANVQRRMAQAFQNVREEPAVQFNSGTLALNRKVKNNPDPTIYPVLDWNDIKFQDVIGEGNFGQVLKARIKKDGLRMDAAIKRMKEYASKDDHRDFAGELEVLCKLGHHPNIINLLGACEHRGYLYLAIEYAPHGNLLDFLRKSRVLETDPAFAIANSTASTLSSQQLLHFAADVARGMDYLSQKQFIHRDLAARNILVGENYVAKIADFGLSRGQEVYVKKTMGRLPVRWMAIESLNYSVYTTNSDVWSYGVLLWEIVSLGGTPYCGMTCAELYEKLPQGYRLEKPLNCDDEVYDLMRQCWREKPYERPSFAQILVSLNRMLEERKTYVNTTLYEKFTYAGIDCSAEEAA

Structure (SMILES): CCc1nnc(NC(=O)Nc2ccc(Oc3ccc4[nH]c(NC(=O)COCCOC)nc4c3)cc2)s1 [Example 156, N-(5-(4-((5-Ethyl-1,3,4-thiadiazol-2-yl)aminocarbonylamino)phenoxy)-1H-benzimidazol-2-yl)(2-(methoxy)ethoxy)acetamide]
- IC50 (Recombinant GST-Tie2): 100 to 1000 nM
- IC50 (GST-VEGFR2): < 100 nM

Structure (SMILES): COCCOCC(=O)Nc1nc2cc(Oc3ccc(NC(=O)Nc4nc(C(C)(C)C)cs4)cc3)ccc2[nH]1 [Example 158, N-(5-(4-((4-tert-Butylthiazol-2-yl)aminocarbonylamino)phenoxy)-1H-benzimidazol-2-yl)(2-(methoxy)ethoxy)acetamide]
- IC50 (Recombinant GST-Tie2): 100 to 1000 nM
- IC50 (GST-VEGFR2): < 100 nM

Structure (SMILES): COCCOCC(=O)Nc1nc2cc(Oc3ccc(NC(=O)Nc4nc(C)cs4)cc3)ccc2[nH]1 [Example 153, N-(5-(4-((4-Methylthiazol-2-yl)aminocarbonylamino)phenoxy)-1H-benzimidazol-2-yl)(2-(methoxy)ethoxy)acetamide]
- IC50 (Recombinant GST-Tie2): 1000 to 10000 nM
- IC50 (GST-VEGFR2): 100 to 1000 nM

Structure (SMILES): CC(=O)Nc1nc2cc(Oc3ccc(NC(=O)Nc4nc(C(C)(C)C)cs4)cc3)ccc2[nH]1 [Example 146, N-(5-(4-((4-tert-Butylthiazol-2-yl)aminocarbonylamino)phenoxy)-1H-benzimidazol-2-yl)acetamide]
- IC50 (Recombinant GST-Tie2): 100 to 1000 nM
- IC50 (GST-VEGFR2): < 100 nM

Structure (SMILES): COCCOCC(=O)Nc1nc2cc(Oc3ccc(NC(=O)Nc4nnc(C(C)(C)C)s4)cc3)ccc2[nH]1 [Example 159, N-(5-(4-((5-tert-Butyl-1,3,4-thiadiazol-2-yl)aminocarbonylamino)phenoxy)-1H-benzimidazol-2-yl)(2-(methoxy)ethoxy)acetamide]
- IC50 (Recombinant GST-Tie2): < 100 nM
- IC50 (GST-VEGFR2): < 100 nM

Structure (SMILES): COCCOCC(=O)Nc1nc2cc(Oc3ccc(NC(=O)Nc4nccs4)cc3)ccc2[nH]1 [Example 151, N-(5-(4-((Thiazol-2-yl)aminocarbonylamino)phenoxy)-1H-benzimidazol-2-yl)(2-(methoxy)ethoxy)acetamide]
- IC50 (Recombinant GST-Tie2): 1000 to 10000 nM
- IC50 (GST-VEGFR2): 100 to 1000 nM

Structure (SMILES): COCCOCC(=O)Nc1nc2cc(Oc3ccc(NC(=O)Nc4nnc(C)s4)cc3)ccc2[nH]1 [Example 155, N-(5-(4-((5-Methyl-1,3,4-thiadiazol-2-yl)aminocarbonylamino)phenoxy)-1H-benzimidazol-2-yl)(2-(methoxy)ethoxy)acetamide]
- IC50 (Recombinant GST-Tie2): 1000 to 10000 nM
- IC50 (GST-VEGFR2): 100 to 1000 nM

Structure (SMILES): COCCOCC(=O)Nc1nc2cc(Oc3ccc(NC(=O)Nc4nncs4)cc3)ccc2[nH]1 [Example 152, N-(5-(4-((1,3,4-Thiadiazol-2-yl)aminocarbonylamino)phenoxy)-1H-benzimidazol-2-yl)(2-(methoxy)ethoxy)acetamide]
- IC50 (Recombinant GST-Tie2): 1000 to 10000 nM
- IC50 (GST-VEGFR2): 1000 to 10000 nM

Structure (SMILES): O=C(Nc1ccc(Oc2ccc3[nH]c(NC(=O)c4c[nH]cn4)nc3c2)cc1)Nc1cc(C(F)(F)F)ccc1F [Example 98, N-(5-(4-((2-Fluoro-5-(trifluoromethyl)phenyl)aminocarbonylamino)phenoxy)-1H-benzimidazol-2-yl)(1H-imidazole-4-carboxamide)dihydrochloride]
- IC50 [1]: < 100 nM
- IC50 [2]: < 100 nM
- IC50 (GST-VEGFR2): < 100 nM
- IC50 [3]: 100 to 1000 nM

Structure (SMILES): Cn1cnc(CC(=O)Nc2nc3cc(Oc4ccc(NC(=O)Nc5cc(C(F)(F)F)ccc5F)cc4)ccc3[nH]2)c1 [Example 97, N-(5-(4-((2-Fluoro-5-(trifluoromethyl)phenyl)aminocarbonylamino)phenoxy)-1H-benzimidazol-2-yl)(1methyl-1H-imidazol-4-yl)acetamide]
- IC50 [1]: < 100 nM
- IC50 [2]: < 100 nM
- IC50 (GST-VEGFR2): < 100 nM
- IC50 [3]: < 100 nM

Structure (SMILES): COC(=O)Nc1nc2cc(Oc3cccc(NC(=O)Nc4cccc(Cl)c4)c3)ccc2[nH]1 [Example 14, Methyl (5-(3-((3-Chlorophenyl)aminocarbonylamino)phenoxy)-1H-benzimidazol-2-yl)carbamate hydrochloride]
- IC50 [1]: 100 to 1000 nM
- IC50 [2]: 100 to 1000 nM
- IC50 (GST-VEGFR2): < 100 nM
- IC50 [3]: 100 to 1000 nM
